Measurements as given in ChEMBL document CHEMBL1147534, “Examination of the 1,4-disubstituted azetidinone ring system as a template for combretastatin A-4 conformationally restricted analogue design” (Bioorg Med Chem Lett, 2004).

How the values were obtained:
[1] = system: IMR-32; test: In vitro cytotoxicity against human cancerous neuroblastoma cells (IMR-32); assay type: functional, cell-based
[2] = system: ACHN; test: In vitro cytotoxicity against human renal adenocarcinoma (ACHN) tumor cell line; assay type: functional, cell-based
[3] = system: AR-42J cell line; test: In vitro cytotoxicity against rat pancreatic (AR-42J) tumor cell line; assay type: functional, cell-based
[4] = system: CHO-K1; test: In vitro cytotoxicity against chinese hamster ovary (CHO-K1) tumor cell line; assay type: functional, cell-based, Cricetulus griseus
[5] = system: CFPAC-1; test: In vitro cytotoxicity against human pancreatic cancer (CFPAC-1) tumor cell line; assay type: functional, cell-based
[6] = system: DU-145; test: In vitro cytotoxicity against human Prostate carcinoma (DU145) tumor cell line; assay type: functional, cell-based
[7] = system: DLD-1; test: In vitro cytotoxicity against human colon adenocarcinoma (DLD-1) tumor cell line; assay type: functional, cell-based
[8] = system: HCT-116; test: In vitro cytotoxicity against human colon carcinoma (HCT116) tumor cell line; assay type: functional, cell-based
[9] = system: MCF7; test: In vitro cytotoxicity against human breast carcinoma (MCF-7) tumor cell line; assay type: functional, cell-based
[10] = system: MCF7; test: In vitro cytotoxicity against human cancerous cells (MCF-7) was determined; assay type: functional, cell-based
[11] = system: NCI-H69; test: In vitro cytotoxicity against human cancerous cells (NCI-H69) was determined; assay type: functional, cell-based
[12] = system: NCI-H460; test: In vitro cytotoxicity against human lung carcinoma (NCI-H460) tumor cell line; assay type: functional, cell-based
[13] = system: T98G; test: In vitro cytotoxicity against human glioblastoma (T-98G) tumor cell line; assay type: functional, cell-based
[14] = system: HeLa; test: In vitro cytotoxicity against human cervix adenocarcinoma (HeLa) tumor cell line; assay type: functional, cell-based
[15] = system: MOLT-4; test: In vitro cytotoxicity against human leukemia (MOLT-4) cell line; assay type: functional, cell-based

SMILES | IC50 ([1]; Homo sapiens, IMR-32) [nM] | IC50 [2] [nM] | IC50 [3] [nM] | IC50 ([4]; Cricetulus griseus, CHO-K1) [nM] | IC50 [5] [nM] | IC50 [6] [nM] | IC50 [7] [nM] | IC50 [8] [nM] | IC50 [9] [nM] | IC50 [12] [nM] | IC50 [13] [nM] | IC50 [14] [nM] | IC50 [15] [nM] | other results
COc1ccc(N2C(=O)C(OC(C)=O)C2c2cc(OC)c(OC)c(OC)c2)cc1 (configuration not stated) | > 1000 |  |  |  |  |  |  |  |  |  |  |  |  | 
COc1cc(N2C(=O)C(OC(C)=O)C2c2ccc3c(c2)OCO3)cc(OC)c1OC (configuration not stated) | 910 |  |  |  |  |  |  |  |  |  |  |  |  | 
COc1ccc(C2C(O)C(=O)N2c2cc(OC)c(OC)c(OC)c2)cc1[N+](=O)[O-] (configuration not stated) | 38 | 29.2 | 212 | 236 | 42.1 | 91.9 | 59.1 | 68.8 | 37.1 | 425 | 49.8 | 40 | 74 | IC50 ([4]; cho-k1): 416 nM; IC50 ([1]; imr-32): 41.4 nM; IC50 [10]: 97 nM; IC50 [11]: 74 nM
COc1ccc(C2C(OC(C)=O)C(=O)N2c2cc(OC)c(OC)c(OC)c2)cc1[N+](=O)[O-] (configuration not stated) | 123 | 595 | 582 | 473 | 197 | 479 | 326 | 526 | 105 | 393 | 144 | 202 | 350 | 
COc1ccc2cc(C3C(O)C(=O)N3c3cc(OC)c(OC)c(OC)c3)ccc2c1 (configuration not stated) | 89 |  |  |  |  |  |  |  |  |  |  |  |  | 
COc1ccc(C2C(O)C(=O)N2c2cc(OC)c(OC)c(OC)c2)cc1N (configuration not stated) | 37 | 91.2 | 62.1 | 544 | 50.2 | 380 | 130 | 140 | 55 | 184 | 109 | 63.9 | 71.7 | IC50 ([4]; cho-k1): 411 nM; IC50 ([1]; imr-32): 38.3 nM; IC50 [10]: 81 nM; IC50 [11]: 25 nM
COc1ccc2cc(C3C(OC(C)=O)C(=O)N3c3cc(OC)c(OC)c(OC)c3)ccc2c1 (configuration not stated) | > 1000 |  |  |  |  |  |  |  |  |  |  |  |  | 
COc1cc(N2C(=O)C(OC(C)=O)C2c2ccc(N(C)C)cc2)cc(OC)c1OC (configuration not stated) | 520 |  |  |  |  |  |  |  |  |  |  |  |  | 
COc1ccc(N2C(=O)C(O)C2c2cc(OC)c(OC)c(OC)c2)cc1 (configuration not stated) | > 1000 |  |  |  |  |  |  |  |  |  |  |  |  | 
COc1ccc(C2C(OC(C)=O)C(=O)N2c2cc(OC)c(OC)c(OC)c2)cc1N (configuration not stated) | 73.1 | 150 | 219 | 462 | 204 | 430 | 394 | 368 | 70.5 | 449 | 145 | 262 | 372 | IC50 ([4]; cho-k1): 509 nM; IC50 [10]: 200 nM; IC50 [11]: 41 nM
COc1cc(N2C(=O)C(OC(C)=O)C2c2ccc([N+](=O)[O-])o2)cc(OC)c1OC (configuration not stated) | 811 |  |  |  |  |  |  |  |  |  |  |  |  | 
COc1cc(N2C(=O)C(OC(C)=O)C2c2ccc(N)o2)cc(OC)c1OC (configuration not stated) | > 1000 |  |  |  |  |  |  |  |  |  |  |  |  | 
COc1ccc(C2C(O)C(=O)N2c2cc(OC)c(OC)c(OC)c2)cn1 (configuration not stated) | > 1000 |  |  |  |  |  |  |  |  |  |  |  |  | 
COc1ccc(C2C(OC(C)=O)C(=O)N2c2cc(OC)c(OC)c(OC)c2)cn1 (configuration not stated) | > 1000 |  |  |  |  |  |  |  |  |  |  |  |  | 
COc1ccc(C2C(OC)C(=O)N2c2cc(OC)c(OC)c(OC)c2)cc1[N+](=O)[O-] (configuration not stated) |  | > 10000 | > 10000 | > 10000 | > 10000 | > 10000 | > 10000 | > 10000 | > 10000 | > 10000 | > 5000 | > 10000 | > 10000 | IC50 ([1]; imr-32): > 10000 nM
COc1ccc(C2C(OC)C(=O)N2c2cc(OC)c(OC)c(OC)c2)cc1N (configuration not stated) | > 1000 |  |  |  |  |  |  |  |  |  |  |  |  | 
COc1cc(C2C(OC(C)=O)C(=O)N2c2ccc3c(c2)OCO3)cc(OC)c1OC (configuration not stated) |  | > 10000 | > 10000 | > 10000 | > 10000 | > 10000 | > 10000 | > 10000 | > 10000 | > 10000 | > 10000 | > 10000 | > 10000 | IC50 ([1]; imr-32): > 10000 nM
COc1ccc(C2C(O)C(=O)N2c2cc(OC)c(OC)c(OC)c2)cc1 (configuration not stated) | 33 |  |  | 509 |  |  |  |  |  |  |  |  |  | IC50 [10]: 62 nM; IC50 [11]: 47 nM
COc1ccc(C2C(OC(C)=O)C(=O)N2c2cc(OC)c(OC)c(OC)c2)cc1 (configuration not stated) | 251 |  |  |  |  |  |  |  |  |  |  |  |  | 
COc1cc(N2C(=O)C(O)C2c2ccc([N+](=O)[O-])o2)cc(OC)c1OC (configuration not stated) | > 1000 |  |  |  |  |  |  |  |  |  |  |  |  | 
COc1cc(C2C(O)C(=O)N2c2ccc3c(c2)OCO3)cc(OC)c1OC (configuration not stated) | > 1000 |  |  |  |  |  |  |  |  |  |  |  |  | 
COc1cc(N2C(=O)C(OC)C2c2ccc3c(c2)OCO3)cc(OC)c1OC (configuration not stated) | > 1000 |  |  |  |  |  |  |  |  |  |  |  |  | 
COc1cc(N2C(=O)C(O)C2c2ccc3c(c2)OCO3)cc(OC)c1OC (configuration not stated) | 473 | 2120 | 1480 | 891 | 885 | 3160 | 905 | 950 | 544 | 1440 | 800 | 546 | 398 | IC50 ([1]; imr-32): 445 nM
